# Test system: Genes belonging to other category
# Assay: DNA chip mRNA expression in yeast, genes belonging to other category (Table 9)
# Format: cell-based, Saccharomyces cerevisiae S288C
# Summary of the method: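 S. cerevisiae S288C grown at 25° C in YPD were exposed in log phase for two hours to one toxic chemical at a growth-inhibiting, non-lethal concentration; untreated cells served as control. Poly(A) mRNA was reverse-transcribed with Cy3/Cy5-dUTP and hybridized to a whole-genome yeast DNA chip at 65° C for over 12 hours; values are fluorescence ratios versus untreated.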
smiles,measurement,setting,value
"CN(C)C(=S)SSC(=S)N(C)C [(10), Tetramethylthiuram disulfide]",The level of expressed mRNA in the presence of chemical substance/The level of expressed mRNA in the absence of chemical substance,yeast gene YDR505C,1.0
same,The level of expressed mRNA in the presence of chemical substance/The level of expressed mRNA in the absence of chemical substance,yeast gene YDR510W,2.5
same,The level of expressed mRNA in the presence of chemical substance/The level of expressed mRNA in the absence of chemical substance,yeast gene YDR515W,2.7
same,The level of expressed mRNA in the presence of chemical substance/The level of expressed mRNA in the absence of chemical substance,yeast gene YEL012W,4.2
same,The level of expressed mRNA in the presence of chemical substance/The level of expressed mRNA in the absence of chemical substance,yeast gene YEL042W,0.3
same,The level of expressed mRNA in the presence of chemical substance/The level of expressed mRNA in the absence of chemical substance,yeast gene YEL066W,2.4
same,The level of expressed mRNA in the presence of chemical substance/The level of expressed mRNA in the absence of chemical substance,yeast gene YER009W,1.0
same,The level of expressed mRNA in the presence of chemical substance/The level of expressed mRNA in the absence of chemical substance,yeast gene YER012W,2.7
same,The level of expressed mRNA in the presence of chemical substance/The level of expressed mRNA in the absence of chemical substance,yeast gene YER039C,0.8
same,The level of expressed mRNA in the presence of chemical substance/The level of expressed mRNA in the absence of chemical substance,yeast gene YER076C,1.2
same,The level of expressed mRNA in the presence of chemical substance/The level of expressed mRNA in the absence of chemical substance,yeast gene YER107C,0.5
same,The level of expressed mRNA in the presence of chemical substance/The level of expressed mRNA in the absence of chemical substance,yeast gene YER130C,1.3
same,The level of expressed mRNA in the presence of chemical substance/The level of expressed mRNA in the absence of chemical substance,yeast gene YFL022C,0.5
same,The level of expressed mRNA in the presence of chemical substance/The level of expressed mRNA in the absence of chemical substance,yeast gene YFL028C,1.8
same,The level of expressed mRNA in the presence of chemical substance/The level of expressed mRNA in the absence of chemical substance,yeast gene YFL043C,3.8
same,The level of expressed mRNA in the presence of chemical substance/The level of expressed mRNA in the absence of chemical substance,yeast gene YFR004W,2.6
same,The level of expressed mRNA in the presence of chemical substance/The level of expressed mRNA in the absence of chemical substance,yeast gene YFR014C,1.6
same,The level of expressed mRNA in the presence of chemical substance/The level of expressed mRNA in the absence of chemical substance,yeast gene YFR050C,2.1
same,The level of expressed mRNA in the presence of chemical substance/The level of expressed mRNA in the absence of chemical substance,yeast gene YGL158W,0.9
same,The level of expressed mRNA in the presence of chemical substance/The level of expressed mRNA in the absence of chemical substance,yeast gene YGL180W,3.7
same,The level of expressed mRNA in the presence of chemical substance/The level of expressed mRNA in the absence of chemical substance,yeast gene YGL185C,2.3
same,The level of expressed mRNA in the presence of chemical substance/The level of expressed mRNA in the absence of chemical substance,yeast gene YGL229C,1.7
same,The level of expressed mRNA in the presence of chemical substance/The level of expressed mRNA in the absence of chemical substance,yeast gene YGR120C,1.2
same,The level of expressed mRNA in the presence of chemical substance/The level of expressed mRNA in the absence of chemical substance,yeast gene YGR136W,2.2
same,The level of expressed mRNA in the presence of chemical substance/The level of expressed mRNA in the absence of chemical substance,yeast gene YGR189C,0.9
same,The level of expressed mRNA in the presence of chemical substance/The level of expressed mRNA in the absence of chemical substance,yeast gene YGR213C,6.9
same,The level of expressed mRNA in the presence of chemical substance/The level of expressed mRNA in the absence of chemical substance,yeast gene YGR248W,3.2
same,The level of expressed mRNA in the presence of chemical substance/The level of expressed mRNA in the absence of chemical substance,yeast gene YGR257C,1.9
same,The level of expressed mRNA in the presence of chemical substance/The level of expressed mRNA in the absence of chemical substance,yeast gene YHR004C,0.6
same,The level of expressed mRNA in the presence of chemical substance/The level of expressed mRNA in the absence of chemical substance,yeast gene YHR071W,7.2
same,The level of expressed mRNA in the presence of chemical substance/The level of expressed mRNA in the absence of chemical substance,yeast gene YHR109W,1.8
same,The level of expressed mRNA in the presence of chemical substance/The level of expressed mRNA in the absence of chemical substance,yeast gene YHR136C,2.0
same,The level of expressed mRNA in the presence of chemical substance/The level of expressed mRNA in the absence of chemical substance,yeast gene YHR139C,46.6
same,The level of expressed mRNA in the presence of chemical substance/The level of expressed mRNA in the absence of chemical substance,yeast gene YHR142W,0.9
same,The level of expressed mRNA in the presence of chemical substance/The level of expressed mRNA in the absence of chemical substance,yeast gene YHR161C,2.0
same,The level of expressed mRNA in the presence of chemical substance/The level of expressed mRNA in the absence of chemical substance,yeast gene YIL034C,1.3
same,The level of expressed mRNA in the presence of chemical substance/The level of expressed mRNA in the absence of chemical substance,yeast gene YIL123W,0.2
same,The level of expressed mRNA in the presence of chemical substance/The level of expressed mRNA in the absence of chemical substance,yeast gene YIL140W,0.6
same,The level of expressed mRNA in the presence of chemical substance/The level of expressed mRNA in the absence of chemical substance,yeast gene YJL035C,1.4
same,The level of expressed mRNA in the presence of chemical substance/The level of expressed mRNA in the absence of chemical substance,yeast gene YJL059W,1.6
same,The level of expressed mRNA in the presence of chemical substance/The level of expressed mRNA in the absence of chemical substance,yeast gene YJL073W,0.7
same,The level of expressed mRNA in the presence of chemical substance/The level of expressed mRNA in the absence of chemical substance,yeast gene YJL089W,3.9
same,The level of expressed mRNA in the presence of chemical substance/The level of expressed mRNA in the absence of chemical substance,yeast gene YJL116C,2.6
same,The level of expressed mRNA in the presence of chemical substance/The level of expressed mRNA in the absence of chemical substance,yeast gene YJL141C,1.3
same,The level of expressed mRNA in the presence of chemical substance/The level of expressed mRNA in the absence of chemical substance,yeast gene YJR004C,0.7
same,The level of expressed mRNA in the presence of chemical substance/The level of expressed mRNA in the absence of chemical substance,yeast gene YJR049C,1.4

# From patent US8192962B2, “Processes for detecting toxic substances” (Daikin Industries, Ltd., priority 2001, dated 2012)
